How the values were obtained:
[1] = test system: central benzodiazepine receptors; conditions: from cited reference (Eur. J. Pharmacol. 1986, 130(3), 257-263); cited from earlier work
rat mGlu 5a receptor = target: T1, rat mGlu 5a receptor (Rattus norvegicus, UniProt P31424); test: [Ca2+]i FLIPR antagonist assay on mGlu 5a transfected EBNA cells against 10 μM glutamate; format: cell-based; conditions: for IC50: rat mGlu 5a transiently transfected EBNA cells, against 10 μM glutamate as agonist
T1 construct: expressed in transfected cells; host or cells: EBNA cells (transient transfection)
Description: The pharmacological activity of the compounds of the present invention was tested using the following methods: cDNA encoding rat mGlu 5a receptor was transiently transfected into EBNA cells using a procedure described by E.-J. Schlaeger and K. Christensen (Transient gene expression in mammalian cells grown in serum-free suspension culture, Cytotechnology 1999, 30, 71-83). [Ca^2+]i measurements were performed on mGlu 5a transfected EBNA cells after incubation of the cells with Fluo 3-AM (obtainable by FLUKA, 0.5 μM final concentration) for 1 hour at 37° C. followed by 4 washes with assay buffer (DMEM supplemented with Hank's salt and 20 mM HEPES. [Ca^2+]i measurements were done using a fluorometric imaging plate reader (FLIPR, Molecular Devices Corporation, La Jolla, Calif., USA). When compounds were evaluated as antagonists they were tested against 10 μM glutamate as agonist.
The inhibition (antagonist) curves were fitted with a four parameter logistic equation giving IC50, and Hill coefficient using the iterative non linear curve fitting software Origin (Microcal Software Inc., Northampton, Mass., USA).

[2] = target: central benzodiazepine receptors; test: Inhibition of binding of tritiated flumazenil to benzodiazepine receptors in rat cortex; conditions: [3H]flumazenil, Cheng & Prusoff
Description: The affinity of compounds of formula I to the central benzodiazepine receptors in vitro was also tested using standard methods as for example described in Nature 1981, 294, 763-765 and J. Neurochemistry 1981, 37, 714-722. According to these methods, the inhibition of the binding of tritiated flumazenil to the specific benzodiazepine receptors in the cortex of rats by the respective test substances is determined and the inhibition dissociation constant (Ki) of each test compound is determined according to the method of Cheng & Prusoff (1973).

T1 sequence (P31424 21-1171 isoform P31424-2 limits assumed): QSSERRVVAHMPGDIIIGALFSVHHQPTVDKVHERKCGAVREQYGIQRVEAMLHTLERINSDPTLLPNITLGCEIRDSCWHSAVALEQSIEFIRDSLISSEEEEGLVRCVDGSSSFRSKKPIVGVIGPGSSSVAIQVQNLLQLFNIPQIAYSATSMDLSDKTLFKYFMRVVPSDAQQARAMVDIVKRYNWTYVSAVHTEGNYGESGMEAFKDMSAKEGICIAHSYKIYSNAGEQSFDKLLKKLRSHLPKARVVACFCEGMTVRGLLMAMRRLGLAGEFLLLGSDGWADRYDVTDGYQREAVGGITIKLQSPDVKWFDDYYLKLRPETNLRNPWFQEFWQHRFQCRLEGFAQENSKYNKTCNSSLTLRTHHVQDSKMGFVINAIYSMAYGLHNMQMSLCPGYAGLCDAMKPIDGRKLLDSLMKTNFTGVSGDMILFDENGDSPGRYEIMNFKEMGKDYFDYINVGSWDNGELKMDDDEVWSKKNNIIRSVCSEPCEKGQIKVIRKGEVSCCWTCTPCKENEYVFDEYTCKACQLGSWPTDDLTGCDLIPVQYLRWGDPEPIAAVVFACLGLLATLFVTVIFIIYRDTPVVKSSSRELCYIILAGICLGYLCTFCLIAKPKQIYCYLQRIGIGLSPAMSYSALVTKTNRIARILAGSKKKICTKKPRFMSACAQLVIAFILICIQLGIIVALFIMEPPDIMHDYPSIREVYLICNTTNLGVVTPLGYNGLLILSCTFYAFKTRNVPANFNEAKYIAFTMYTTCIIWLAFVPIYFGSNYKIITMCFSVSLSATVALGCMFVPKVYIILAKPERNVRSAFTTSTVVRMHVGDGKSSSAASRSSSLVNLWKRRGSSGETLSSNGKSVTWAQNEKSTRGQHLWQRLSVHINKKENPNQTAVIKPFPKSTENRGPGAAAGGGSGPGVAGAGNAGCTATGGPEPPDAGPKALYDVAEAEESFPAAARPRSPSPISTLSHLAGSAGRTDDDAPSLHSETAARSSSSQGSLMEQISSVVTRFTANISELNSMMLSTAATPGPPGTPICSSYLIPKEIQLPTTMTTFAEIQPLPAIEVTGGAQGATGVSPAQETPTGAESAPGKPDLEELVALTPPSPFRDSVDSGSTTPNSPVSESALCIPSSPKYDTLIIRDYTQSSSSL

Cc1ccc(-c2nc3ccc(C)cn3c2CC(=O)N(C)C)cc1 [N,N,6-trimethyl-2-(4-methylphenyl)-imidazo[1,2-a]pyridine-3-acetamide, reference compound]
agonist properties at central benzodiazepine receptors [1]: possesses agonist properties at central benzodiazepine receptors
affinity toward the mGluR5 receptor (rat mGlu 5a receptor; statement in words, compared with compounds of formula I): does not possess the affinity toward the mGluR5 receptor

Brc1cccc(-c2cn3ccccc3n2)c1 [Example 11, 2-(3-Bromo-phenyl)-imidazo[1,2-a]pyridine]
IC50 (rat mGlu 5a receptor): 950 nM

Cc1ccc(-c2cn3ccccc3n2)s1 [Example 21, 2-(5-Methyl-thiophen-2-yl)-imidazo[1,2-a]pyridine]
IC50 (rat mGlu 5a receptor): 6130 nM

O=[N+]([O-])c1cccc(-c2cn3ccccc3n2)c1 [Example 29, 2-(3-Nitro-phenyl)-imidazo[1,2-a]pyridine]
IC50 (rat mGlu 5a receptor): 10000 nM

c1ccn2cc(-c3ccc4c(c3)CCO4)nc2c1 [Example 18, 2-(2,3-Dihydro-benzofuran-5-yl)-imidazo[1,2-a]pyridine]
IC50 (rat mGlu 5a receptor): 2860 nM

COc1ccn2cc(-c3ccc(OC)c(OC)c3)nc2c1 [Example 5, 2-(3,4-Dimethoxy-phenyl)-7-methoxy-imidazo[1,2-a]pyridine]
melting point: 142 °C
IC50 (rat mGlu 5a receptor): 3300 nM

COc1cccc(-c2cn3ccccc3n2)c1 [Example 25, 2-(3-Methoxy-phenyl)-imidazo[1,2-a]pyridine]
IC50 (rat mGlu 5a receptor): 1650 nM

COc1cc(-c2cn3ccccc3n2)ccc1OCc1ccccc1 [Example 9, 2-(4-Benzyloxy-3-methoxy-phenyl)-imidazo[1,2-a]pyridine]
IC50 (rat mGlu 5a receptor): 830 nM

c1ccn2cc(-c3ccc4c(c3)CCC4)nc2c1 [Example 10, 2-Indan-5-yl-imidazo[1,2-a]pyridine]
IC50 (rat mGlu 5a receptor): 930 nM

Fc1cccc(-c2cn3ccccc3n2)c1 [Example 19, 2-(3-Fluoro-phenyl)-imidazo[1,2-a]pyridine]
IC50 (rat mGlu 5a receptor): 3410 nM

Cc1ccn2cc(-c3ccccc3)nc2c1 [Example 22, 7-Methyl-2-phenyl-imidazo[1,2-a]pyridine]
IC50 (rat mGlu 5a receptor): 7500 nM

Cc1cccc(-c2cn3ccccc3n2)c1 [Example 14, 2-(3-Methyl-phenyl)-imidazo[1,2-a]pyridine]
IC50 (rat mGlu 5a receptor): 1550 nM

Cc1ccc(-c2cn3ccccc3n2)cc1C.Cl [Example 6, 2-(3,4-Dimethyl-phenyl)-imidazo[1,2-a]pyridine hydrochloride]
pKi (negative logarithm of the Ki) [2]: 5.2
IC50 (rat mGlu 5a receptor): 37 nM

Cc1ccc(-c2cn3ccccc3n2)cc1 [Example 23, 2-(4-Methyl-phenyl)-imidazo[1,2-a]pyridine]
IC50 (rat mGlu 5a receptor): 8770 nM

Cc1ccn2cc(-c3ccc(C)c(C)c3)nc2c1 [Example 7, 2-(3,4-Dimethyl-phenyl)-7-methyl-imidazo[1,2-a]pyridine]
IC50 (rat mGlu 5a receptor): 280 nM

COc1ccc(-c2cn3ccccc3n2)cc1OC [Example 3, 2-(3,4-Dimethoxy-phenyl)-imidazo[1,2-a]pyridine]
IC50 (rat mGlu 5a receptor): 6800 nM

Ic1cccc(-c2cn3ccccc3n2)c1 [Example 12, 2-(3-Iodo-phenyl)-imidazo[1,2-a]pyridine]
IC50 (rat mGlu 5a receptor): 970 nM

COc1ccc(-c2cn3cc(C)ccc3n2)cc1OC [Example 26, 2-(3,4-Dimethoxy-phenyl)-6-methyl-imidazo[1,2-a]pyridine]
IC50 (rat mGlu 5a receptor): 8300 nM

FC(F)(F)c1cccc(-c2cn3ccccc3n2)c1 [Example 17, 2-(3-Trifluoromethyl-phenyl)-imidazo[1,2-a]pyridine]
IC50 (rat mGlu 5a receptor): 2790 nM

COc1ccn2cc(-c3ccc(C)c(C)c3)nc2c1 [Example 4, 2-(3,4-Dimethyl-phenyl)-7-methoxy-imidazo[1,2-a]pyridine]
melting point: 175 °C
IC50 (rat mGlu 5a receptor): 140 nM

c1ccc2oc(-c3cn4ccccc4n3)cc2c1 [Example 15, 2-Benzofuran-2-yl-imidazo[1,2-a]pyridine]
IC50 (rat mGlu 5a receptor): 1660 nM

Fc1ccc(-c2cn3ccccc3n2)cc1Br [Example 8, 2-(3-Bromo-4-fluoro-phenyl)-imidazo[1,2-a]pyridine]
IC50 (rat mGlu 5a receptor): 690 nM

c1ccc2c(-c3cn4ccccc4n3)csc2c1 [Example 16, 2-Benzo[b]thiophen-3-yl-imidazo[1,2-a]pyridine]
IC50 (rat mGlu 5a receptor): 2760 nM

Cc1ccc(-c2cn3cc(C)ccc3n2)cc1 [Example 28, 6-Methyl-2-(4-methyl-phenyl)-imidazo[1,2-a]pyridine]
IC50 (rat mGlu 5a receptor): 10000 nM

Cc1ccc(-c2cn3ccc(Cl)cc3n2)cc1C [Example 1, 7-Chloro-2-(3,4-dimethyl-phenyl)-imidazo[1,2-a]pyridine]
melting point: 144 °C
IC50 (rat mGlu 5a receptor): 100 nM

Clc1cccc(-c2cn3ccccc3n2)c1 [Example 13, 2-(3-Chloro-phenyl)-imidazo[1,2-a]pyridine]
IC50 (rat mGlu 5a receptor): 1230 nM

c1ccn2cc(-c3ccc4c(c3)OCCO4)nc2c1 [Example 27, 2-(2,3-Dihydro-benzo [1,4]dioxin-6-yl)-imidazo[1,2-a]pyridine]
IC50 (rat mGlu 5a receptor): 990 nM

COc1ccc(-c2cn3ccc(C)cc3n2)cc1OC [Example 2, 2-(3,4-Dimethoxy-phenyl)-7-methyl-imidazo[1,2-a]pyridine]
melting point: 163 °C
IC50 (rat mGlu 5a receptor): 1880 nM

Cc1cc(-c2cn3ccccc3n2)c(C)s1 [Example 24, 2-(2,5-Dimethyl-thiophen-3-yl)-imidazo[1,2-a]pyridine]
IC50 (rat mGlu 5a receptor): 580 nM

CCc1ccn2cc(-c3ccc(C)c(C)c3)nc2c1 [Example 20, 2-(3,4-Dimethyl-phenyl)-7-ethyl-imidazo[1,2-a]pyridine]
IC50 (rat mGlu 5a receptor): 3640 nM

Reference: patent US6916826B2, “Substituted imidazo[1,2-a]pyridine derivatives” (Hoffman-La Roche Inc., priority 2001, dated 2005)
